Measured values taken from ChEMBL document CHEMBL4130593, “Identification of an Indazole-Based Pharmacophore for the Inhibition of FGFR Kinases Using Fragment-Led de Novo Design” (ACS Med Chem Lett, 2017).

How the values were obtained:
[1] = biological target: T1, Fibroblast growth factor receptor 1 (Homo sapiens, UniProt P11362); assay: Inhibition of recombinant human His-tagged FGFR1 cytoplasmic domain (308 to 731 residues) expressed in baculovirus expression system using Tyr 04 as substrate measured after 1 hr by Z'-LYTE assay
[2] = biological target: T1, Fibroblast growth factor receptor 1; assay: Inhibition of recombinant human His-tagged FGFR1 cytoplasmic domain (308 to 731 residues) expressed in baculovirus expression system at 500 uM using Tyr 04 as substrate measured after 1 hr by Z'-LYTE assay relative to control
[3] = biological target: T1, Fibroblast growth factor receptor 1; assay: Inhibition of recombinant human His-tagged FGFR1 cytoplasmic domain (308 to 731 residues) expressed in baculovirus expression system at 100 uM using Tyr 04 as substrate measured after 1 hr by Z'-LYTE assay relative to control
[4] = biological target: Fibroblast growth factor receptor 3 (Homo sapiens, UniProt P22607); assay: Inhibition of recombinant human His-tagged FGFR3 cytoplasmic domain (399 to 806 residues) expressed in baculovirus expression system using Tyr 04 as substrate measured after 1 hr by Z'-LYTE assay
Sequence of Fibroblast growth factor receptor 3 (P22607 whole entry, the tested form may be a part): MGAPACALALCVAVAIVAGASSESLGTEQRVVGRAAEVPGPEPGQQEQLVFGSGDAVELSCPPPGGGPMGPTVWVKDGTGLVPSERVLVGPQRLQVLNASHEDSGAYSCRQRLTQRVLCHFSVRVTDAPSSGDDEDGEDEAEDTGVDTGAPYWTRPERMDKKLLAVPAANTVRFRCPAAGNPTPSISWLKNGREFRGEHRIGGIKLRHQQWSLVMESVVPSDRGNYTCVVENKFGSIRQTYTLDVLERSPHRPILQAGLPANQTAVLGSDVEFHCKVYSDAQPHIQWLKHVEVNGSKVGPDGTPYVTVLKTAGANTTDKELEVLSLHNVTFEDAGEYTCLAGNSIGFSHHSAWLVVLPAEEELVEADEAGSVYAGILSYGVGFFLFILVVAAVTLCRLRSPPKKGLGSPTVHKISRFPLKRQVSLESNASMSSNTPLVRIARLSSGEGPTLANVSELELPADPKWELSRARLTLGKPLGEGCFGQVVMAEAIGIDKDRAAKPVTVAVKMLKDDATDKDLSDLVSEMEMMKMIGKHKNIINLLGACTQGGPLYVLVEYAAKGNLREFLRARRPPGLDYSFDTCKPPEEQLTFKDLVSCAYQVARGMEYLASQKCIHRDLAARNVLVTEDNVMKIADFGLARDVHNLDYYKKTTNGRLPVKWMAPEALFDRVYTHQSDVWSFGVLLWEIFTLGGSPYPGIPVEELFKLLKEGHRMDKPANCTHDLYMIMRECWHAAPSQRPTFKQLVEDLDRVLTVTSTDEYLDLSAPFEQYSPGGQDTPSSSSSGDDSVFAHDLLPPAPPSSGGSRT

T1 sequence (P11362 whole entry, the tested form may be a part): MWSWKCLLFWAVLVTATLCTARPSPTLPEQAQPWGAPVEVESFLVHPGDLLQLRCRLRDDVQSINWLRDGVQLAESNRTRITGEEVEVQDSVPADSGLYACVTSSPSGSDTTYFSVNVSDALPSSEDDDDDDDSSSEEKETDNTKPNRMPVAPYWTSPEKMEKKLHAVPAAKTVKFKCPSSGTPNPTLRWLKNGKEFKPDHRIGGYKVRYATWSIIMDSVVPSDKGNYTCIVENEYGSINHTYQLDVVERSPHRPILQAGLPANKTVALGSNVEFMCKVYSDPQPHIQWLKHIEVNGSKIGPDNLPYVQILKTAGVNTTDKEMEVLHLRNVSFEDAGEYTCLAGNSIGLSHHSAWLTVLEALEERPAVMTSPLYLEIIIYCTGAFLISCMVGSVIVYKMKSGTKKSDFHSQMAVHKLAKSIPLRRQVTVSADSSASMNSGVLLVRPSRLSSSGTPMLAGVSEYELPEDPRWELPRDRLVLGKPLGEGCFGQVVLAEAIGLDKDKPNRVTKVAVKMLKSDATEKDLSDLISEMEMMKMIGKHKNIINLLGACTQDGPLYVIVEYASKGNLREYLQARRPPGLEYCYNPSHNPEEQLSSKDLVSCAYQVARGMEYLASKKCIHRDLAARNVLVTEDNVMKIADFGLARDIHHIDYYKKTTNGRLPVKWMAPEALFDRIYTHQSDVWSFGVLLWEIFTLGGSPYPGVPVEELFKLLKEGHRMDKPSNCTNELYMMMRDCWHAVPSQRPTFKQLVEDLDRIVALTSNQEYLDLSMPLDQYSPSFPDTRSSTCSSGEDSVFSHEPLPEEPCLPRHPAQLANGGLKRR

IC50 [1] [µM]	inhibition at 100 µM [3] [%]	SMILES	other results
6.4		Cc1cc(O)ccc1-c1ccc2cn[nH]c2c1	
90		c1cncc(-c2ccc3cn[nH]c3c2)c1	inhibition at 500 µM [2]: 66%
	32	Clc1cccc(-c2ccc3cn[nH]c3c2)c1	
		c1ccc(-c2ccc3cc[nH]c3c2)cc1	inhibition at 500 µM [2]: 1%
	29	c1coc(-c2ccc3cn[nH]c3c2)c1	
9.9		Oc1ccc(-c2ccc3cn[nH]c3c2)c(F)c1	IC50 [4]: > 100 µM
83		CCOc1cc(F)cc(-c2ccc3cn[nH]c3c2)c1	IC50 [4]: > 100 µM
> 500		Clc1cncc(-c2ccc3cc[nH]c3c2)c1	inhibition at 500 µM [2]: 21%
36		Clc1cncc(-c2ccc3cn[nH]c3c2)c1	inhibition at 500 µM [2]: 73%
	19	Cc1csc(-c2ccc3cn[nH]c3c2)c1	
	12	Clc1ccc(-c2ccc3cn[nH]c3c2)cc1	
	19	Fc1cccc(-c2ccc3cn[nH]c3c2)c1	
14		Oc1ccc(-c2ccc3cn[nH]c3c2)cc1F	
	20	c1cc(-c2ccc3cn[nH]c3c2)cs1	
77		c1ccc(-c2ccc3cn[nH]c3c2)cc1	inhibition at 500 µM [2]: 53%
9.7		CCOc1cccc(-c2ccc3cn[nH]c3c2)c1F	IC50 [4]: > 100 µM
8.8		Cc1cc(-c2ccc3cn[nH]c3c2)ccc1O	
> 100		CCOc1ccc(F)c(-c2ccc3cn[nH]c3c2)c1F	IC50 [4]: > 100 µM
	-5	FC(F)(F)c1cc(-c2ccc3cn[nH]c3c2)cc(C(F)(F)F)c1	
	11	COc1ccc(-c2ccc3cn[nH]c3c2)cc1	
		c1cncc(-c2ccc3cc[nH]c3c2)c1	inhibition at 500 µM [2]: 16%
